In patent US9803180B2, “S-adenosylmethionine (SAM) synthase variants for the synthesis of artificial cofactors” (LEIBNIZ-INSTITUT FUR PFLANZENBIOCHEMIE STIFTUNG DES …, priority 2013, dated 2017):
Entries after “also recorded” stand apart in the source; their conditions may differ.

Columns and labels:
Format in all cases: biochemical
[1] = Substrate spectrum: conversion of methionine and S-alkylhomocysteine derivatives by SAM synthase and variants; details: for substrate acceptance (which amino acid substrates are converted): in words
From the text: (§1) FIGS. 3A-3E show the rates of conversion of amino acid substrates catalyzed by the SAMS enzyme from Bacillus subtilis (FIG. 3A) and its variants I317V (FIG. 3B), I317A (FIG. 3C), I105V/I317A (FIG. 3D) or I105A/I317A (FIG. 3E) as a function of the substrate concentration. The reaction with L-methionine (open circles), D,L-methionine (closed circles), D,L-methionine-(methyl-D3) (x), D,L-ethionine (hatched circles), S-n-propyl-D,L-homocysteine (open triangles), S-n-butyl-D,L-homocysteine (closed triangles) or S-(2-methylvinyl)-D,L-homocysteine (diamonds) was assessed by spectrophotometric determination of phosphate which is released from the co-substrate ATP during the reaction.
For these studies, a series of S-alkylhomocysteines with linear (D,L-methionine-(methyl-D3), -ethionine, -propionine and -buthionine), branched (D,L-isopropionine and -isobuthionines), unsaturated (D,L-methylvinylhomocysteine) and functionalized (D,L-hydroxyethionine and -carboxymethionine) alkyl groups were synthesized from D,L-homocysteine thiolactone and tested for conversion by the cloned (wildtype) SAM synthase.
As derived from a homology model which is based on the crystal structure of the protein from E. coli (PDB code 1XRA), a hydrophobic cleft formed from two conserved isoleucine residues hinders the generation of cofactor analogues from amino acid substrates with bulky alkyl residues (FIG. 2). Accordingly, both residues were exchanged against less voluminous amino acids by site-directed mutagenesis.
To further probe the role of the proximate isoleucine residue I105 in substrate recognition, the variants I105V/I317A and I105A/I317A were generated. […] Compared to the wild-type enzyme (FIG. 3A), substrate specificity of the variant I105A/I317A (FIG. 3E) is inverted (S-n-propylhomocysteine>S-n-butylhomocysteine>ethionine>>methionine).

[2] = Kinetic parameters for the conversion of S-alkylhomocysteines; standard SAM synthase assay, photometric detection of the cleaved phosphate
From the text: as §1
The kinetic parameters for the conversion of S-alkylhomocysteines by Bacillus subtitlis SAM synthase and its variants as shown in Table 1 were calculated from the conversion rates of methionine and analogues as a function of the substrate concentration […] which were determined by the standard SAM synthase assay known in the art, i.e. by photometric detection of the cleaved phosphate.

[3] = Time course of formation of SAM and SAM derivatives, analyzed by HPTLC; details: racemic amino acid 10 mM, enzyme 10 mU ml^−1; in words
Method: FIGS. 4A-4C show the formation of SAM and SAM derivatives by the SAM synthase enzyme from Bacillus subtilis (FIG. 4A) or its variants I317V (FIG. 4B) and I317A (FIG. 4C). The conversion of the L-enantiomer of methionine (closed circles), ethionine (hatched circles), S-n-propylhomocysteine (open triangles) and S-n-butylhomocysteine (closed triangles) from the corresponding racemic amino acid (10 mM) was performed in the presence of equal amounts of enzyme (10 mU ml^−1). The reactions were analyzed by HPTLC.
The suitability of the wild-type protein and of variants with appropriate substrate specificity (I317V and I317A) for the synthesis of SAM and analogues was evaluated by high-performance thin-layer chromatography. Since the enzymes were not inhibited by the D-enantiomer of the amino acid substrates, methionine and its derivatives could be advantageously applied as racemic mixture of its stereoisomeres in these reactions. […] Accordingly, transformation of methionine and ethionine by SAMS-I317V in preparative synthetic reactions led to high conversion rates for the amino acid substrates. The syntheses were performed similar to the kinetic experiments but in larger scale (200 μmol). After prolonged incubation (18 hours) to reach maximum product yield, 84 and 89% of the L-amino acid was converted. […]

[4] = Preparative synthetic reactions (200 μmol): conversion of the L-amino acid; details: for conversion: 8 hours; for L-amino acid converted: 18 hours, 200 μmol scale
Method: The suitability of the wild-type protein and of variants with appropriate substrate specificity (I317V and I317A) for the synthesis of SAM and analogues was evaluated by high-performance thin-layer chromatography. Since the enzymes were not inhibited by the D-enantiomer of the amino acid substrates, methionine and its derivatives could be advantageously applied as racemic mixture of its stereoisomeres in these reactions. […] Accordingly, transformation of methionine and ethionine by SAMS-I317V in preparative synthetic reactions led to high conversion rates for the amino acid substrates. The syntheses were performed similar to the kinetic experiments but in larger scale (200 μmol). After prolonged incubation (18 hours) to reach maximum product yield, 84 and 89% of the L-amino acid was converted. In the production of the n-propyl- and n-butyl analogues of SAM by the variant I317A, 43% and 28% of conversion could be reached after 8 hours of reaction time. After product purification by cation exchange chromatography on SP-Sephadex C-25, SAM and its homologs could be recovered in final yields of 25, 17, 8 and 11%, respectively. As proven by ^1H NMR, the enzymatically produced SAM contained a high excess (≧90%) of the biologically active (S,S)-epimer.

[5] = Activity of further position 317 SAM synthase variants (Example 4)
From the text: The influence of position 317 on catalytic turnover and its crucial role in determination of substrate spectrum was additionally confirmed by introduction of other small- and medium-sized amino acid residues.

[6] = substrate S-n-butyl-D,L-homocysteine
[7] = substrate S-n-propyl-D,L-homocysteine
[8] = substrate S-(2-methylvinyl)-D,L-homocysteine
[9] = substrate D,L-methionine-(methyl-D3)

Substance | substrate acceptance (which amino acid substrates are converted) [1] | S0.5 ([2]; substrate D,L-ethionine) [mM] | Vmax ([2]; substrate D,L-ethionine) [nmol/min/mg] | h ([2]; substrate D,L-ethionine) | Vmax ([2]; substrate D,L-methionine) [nmol/min/mg] | S0.5 [2, 6] | Vmax [2, 6] | h [2, 6] | S0.5 [2, 7] | Vmax [2, 7] | h [2, 7] | S0.5 ([2]; substrate D,L-methionine) [mM] | h ([2]; substrate D,L-methionine) | product inhibition by SAM [3] | S0.5 ([2]; substrate L-methionine) [mM] | Vmax ([2]; substrate L-methionine) [nmol/min/mg] | h ([2]; substrate L-methionine) | other results
I105A/I317A: I105A/I317A SAM synthase variant (SEQ ID NO: 4) | acceptance of the artificial long-chain substrates only; also recorded: prefer long-chain substrates | 3.91 ± 0.27 | 3.0 ± 1.8 | 2.9 ± 0.4 | 0.8 ± 0.2 | =10.0 mM | =4.0 ± 0.2 nmol min^-1 mg^-1 | 0.8 ± 0.1 | =10.0 mM | =10.8 ± 0.1 nmol min^-1 mg^-1 | 1.0 ± 0.1 | – | – | – | – | – | – | substrate specificity (rank order) ([1]; FIG. 3E, compared to wild-type): S-n-propylhomocysteine>S-n-butylhomocysteine>ethionine>>methionine
I105V/I317A: I105V/I317A SAM synthase variant (SEQ ID NO: 6) | prefer long-chain substrates | 4.25 ± 0.20 | 5.7 ± 0.3 | 4.6 ± 0.8 | 17.0 ± 2.0 | 4.20 ± 0.41 mM | 11.9 ± 0.9 nmol/min/mg | 2.0 ± 0.2 | 1.86 ± 0.41 mM | 17.7 ± 1.5 nmol/min/mg | 1.0 ± 0.1 | 3.77 ± 1.02 | 1.0 ± 0.1 | – | – | – | – | –
I317A: I317A SAM synthase variant (SEQ ID NO: 2) of Bacillus subtilis SAM synthase | active on ethionine, propionine, buthionine and the unsaturated D,L-methylvinylhomocysteine | 2.99 ± 0.23 | 44.1 ± 1.6 | 1.2 ± 0.1 | 37.7 ± 0.8 | 3.56 ± 0.45 mM | 35.4 ± 2.6 nmol/min/mg | 1.4 ± 0.1 | 0.90 ± 0.05 mM | 34.2 ± 0.7 nmol/min/mg | 1.1 ± 0.1 | 0.92 ± 0.05 | 1.1 ± 0.1 | much less affected by product inhibition; also recorded: less pronounced | 0.46 ± 0.02 | 34.8 ± 0.5 | 1.3 ± 0.1 | conversion ([4]; production of n-butyl analogue of SAM): 28%; conversion ([4]; production of n-propyl analogue of SAM): 43%; S0.5 [2, 8]: 0.79 ± 0.04 mM; Vmax [2, 8]: 22.4 ± 0.4 nmol/min/mg; h [2, 8]: 1.2 ± 0.1
I317C: Bacillus subtilis SAM synthase with position 317 substituted by cysteine; tolerably active enzyme | – | – | – | – | – | – | – | – | – | – | – | – | – | – | – | – | – | activity (conversion) ([5]; 5 mM D,L-buthionine): 6.0 ± 0.3 nmol/min/mg; activity (conversion) ([5]; 5 mM D,L-ethionine): 16.4 ± 0.7 nmol/min/mg; activity (conversion) ([5]; 5 mM D,L-methionine): 59.4 ± 0.4 nmol/min/mg; activity (conversion) ([5]; 5 mM D,L-propionine): 8.4 ± 0.3 nmol/min/mg
I317V: I317V SAM synthase variant (SEQ ID NO: 3) of Bacillus subtilis SAM synthase | also converts ethionine | 10.94 ± 2.70 | 51.2 ± 9.1 | 1.3 ± 0.1 | 446.2 ± 13.8 | – | – | – | – | – | – | 1.71 ± 0.12 | 1.3 ± 0.1 | – | 0.72 ± 0.04 | 408.0 ± 7.7 | 1.2 ± 0.1 | L-amino acid converted ([4]; ethionine): 89%; L-amino acid converted ([4]; methionine): 84%
Wild-type: wildtype Bacillus subtilis S-Adenosylmethionine (SAM) synthase, SEQ ID NO: 1, recombinantly expressed in E. coli BL21 (DE3) [reference compound] | did not accept any of these methionine derivatives | – | – | – | 90.8 ± 1.6 | – | – | – | – | – | – | 1.92 ± 0.12 | 1.7 ± 0.2 | inhibited by its product SAM | 1.04 ± 0.14 | 93.2 ± 3.1 | 1.1 ± 0.1 | inhibition by the D-enantiomer of methionine ([2]; FIG. 3A, in words): not inhibited by the D-enantiomer of methionine; S0.5 [2, 9]: 1.86 ± 0.07 mM; Vmax [2, 9]: 79.8 ± 2.3 nmol/min/mg; h [2, 9]: 2.2 ± 0.2
